Experimental data published in ChEMBL document CHEMBL1138082, “Structural requirements for the substrates of the H+/peptide cotransporter PEPT2 determined by three-dimensional quantitative structure-activity relationship analysis” (J Med Chem, 2006).
Residues, ends and D or L forms follow the SMILES beside them.

Legend:
[1] = biological target: T1, Solute carrier family 15 member 1 (Homo sapiens, UniProt P46059); experiment: Displacement of [14C]Gly-Sar from human PEPT1 in Caco-2 cells; assay type: cell-based
T1 sequence (P46059 whole entry): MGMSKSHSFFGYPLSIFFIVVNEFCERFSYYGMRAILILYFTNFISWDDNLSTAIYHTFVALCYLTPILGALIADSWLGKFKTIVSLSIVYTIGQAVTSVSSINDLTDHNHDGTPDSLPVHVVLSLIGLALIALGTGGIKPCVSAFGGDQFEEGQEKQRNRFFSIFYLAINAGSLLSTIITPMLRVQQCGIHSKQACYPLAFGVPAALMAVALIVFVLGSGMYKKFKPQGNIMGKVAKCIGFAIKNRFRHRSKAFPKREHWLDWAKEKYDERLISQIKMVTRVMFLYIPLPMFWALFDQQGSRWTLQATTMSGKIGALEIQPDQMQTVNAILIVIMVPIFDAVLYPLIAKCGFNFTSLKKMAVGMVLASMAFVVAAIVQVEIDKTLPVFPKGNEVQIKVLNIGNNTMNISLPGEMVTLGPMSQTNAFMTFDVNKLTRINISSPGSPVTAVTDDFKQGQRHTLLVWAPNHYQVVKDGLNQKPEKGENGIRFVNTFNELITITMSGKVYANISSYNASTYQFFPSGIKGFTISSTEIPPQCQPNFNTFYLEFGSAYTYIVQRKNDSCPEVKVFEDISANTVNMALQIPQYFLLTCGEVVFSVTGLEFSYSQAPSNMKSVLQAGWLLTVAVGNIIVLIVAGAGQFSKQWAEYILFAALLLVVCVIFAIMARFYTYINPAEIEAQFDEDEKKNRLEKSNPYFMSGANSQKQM

[2] = biological target: T2, Solute carrier family 15 member 2 (Rattus norvegicus, UniProt Q63424); experiment: Displacement of [14C]Gly-Sar from rat PEPT2 in SKPT0193 C1.2 cells; assay type: cell-based
T2 sequence (Q63424 whole entry): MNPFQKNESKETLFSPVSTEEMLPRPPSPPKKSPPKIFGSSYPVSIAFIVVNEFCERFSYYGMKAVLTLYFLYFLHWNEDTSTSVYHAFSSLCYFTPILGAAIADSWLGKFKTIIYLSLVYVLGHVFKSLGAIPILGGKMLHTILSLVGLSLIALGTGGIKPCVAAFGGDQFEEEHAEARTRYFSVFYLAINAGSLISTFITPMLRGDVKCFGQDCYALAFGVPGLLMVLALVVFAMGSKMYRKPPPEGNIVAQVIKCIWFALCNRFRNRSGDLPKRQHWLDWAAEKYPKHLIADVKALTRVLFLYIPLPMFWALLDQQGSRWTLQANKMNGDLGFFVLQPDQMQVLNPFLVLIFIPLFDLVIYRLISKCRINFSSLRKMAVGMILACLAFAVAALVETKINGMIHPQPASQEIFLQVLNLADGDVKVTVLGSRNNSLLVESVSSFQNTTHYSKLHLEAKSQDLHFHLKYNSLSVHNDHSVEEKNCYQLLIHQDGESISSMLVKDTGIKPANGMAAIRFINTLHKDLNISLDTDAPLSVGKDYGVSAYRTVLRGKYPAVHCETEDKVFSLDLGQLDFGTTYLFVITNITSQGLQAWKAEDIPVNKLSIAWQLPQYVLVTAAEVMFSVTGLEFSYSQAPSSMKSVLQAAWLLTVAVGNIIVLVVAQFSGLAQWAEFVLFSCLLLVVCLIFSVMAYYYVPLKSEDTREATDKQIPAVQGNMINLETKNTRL

[3] = Selectivity for rat PEPT2 over human PEPT1

Ki [1] [µM] | Ki [2] [µM] | log selectivity ratio [3] | SMILES
20 | 3.7 | 0.7 | C[C@H](NC(=O)[C@H](Cc1ccccc1)NC(=O)c1ccccc1)C(=O)O
– | – | -1.1 | CC(C)C[C@H](N)C(=O)N[C@@H](C)C(=O)N[C@@H](CCCN=C(N)N)C(=O)O (H-Leu-Ala-Arg-OH)
100 | 1200 | – | CC(C)C[C@H](N)C(=O)N[C@@H](C)C(=O)N[C@@H](CCCNC(=N)N)C(=O)O (H-Leu-Ala-Arg-OH)
– | 4 | 1.7 | C[C@H](NC(=O)[C@@H](N)Cc1c[nH]c2ccccc12)C(=O)O (H-Trp-Ala-OH)
